# Results reported in patent publication US20220378816A1, “2-BENZYLIDENE HYDRAZINOADENOSINE COMPOUNDS HAVING A2A ADENOSINE RECEPTOR AGONISTIC ACTIVITY” (ACADEMY OF MILITARY MEDICAL SCIENCES, priority 2019, published 2022).
# Like-named read-outs stand apart in the source and are kept apart here.
# Assays:
# [1] = target: T1, (human) A2A adenosine receptors (Homo sapiens, UniProt P29274); test: Radioligand binding test ([3H]CGS21680 displacement, hA2A HEK-293 cell membranes); details: for Ki: read-out: Ki (inhibition constant)
# T1 construct: purchased PerkinElmer Research Products (Boston, Mass.); host or cells: HEK-293
# Description: Cell membranes stably transfected with (human) A2A adenosine receptors were prepared in HEK-293 cells. The cell membranes were obtained from PerkinElmer Research Products (Boston, Mass.).
# The A2A adenosine receptors used were all expressed in the cell membranes. […] (final 25 nM) was added to the diluted cell membrane, and mixed well. 50 μL of the prepared dilution solution of cell membrane was transferred to the 384-well Opti-plate containing compound and incubated at 25° C. for 90 minutes. 100 μL of 0.5% Polyethyleneimine solution (PEI) was added to […]-96 GF/B filter plate, and soaked for 90 minutes at 4° C., then 500 μL of washing buffer/well (50 mM Tris-HCl pH 7.4, 154 mM NaCl) was transferred with Cell Harvester to wash the […]-96 GF/B filter plate twice. The mixed system in the Opti-plate was transferred to the washed […]-96 GF/B filter plate, 500 μL of washing buffer/well (50 mM Tris-HCl pH 7.4, 154 mM NaCl) was used to wash the […]-96 GF/B filter plate 9 times. Incubation was performed in 37° C. incubator for 3 minutes. 40 μL of ULTIMA GOLD scintillation solution (Perkin Elmer, Cat #77-16061) was added to each well, CPM (count per minute) value was read by a MicroBeta liquid scintillation counter (PerkinElmer).
# [2] = calculated from IC50 by Cheng and Prusoff equation, [S] 25 nM, Km […] nM
# T1 sequence (P29274 whole entry): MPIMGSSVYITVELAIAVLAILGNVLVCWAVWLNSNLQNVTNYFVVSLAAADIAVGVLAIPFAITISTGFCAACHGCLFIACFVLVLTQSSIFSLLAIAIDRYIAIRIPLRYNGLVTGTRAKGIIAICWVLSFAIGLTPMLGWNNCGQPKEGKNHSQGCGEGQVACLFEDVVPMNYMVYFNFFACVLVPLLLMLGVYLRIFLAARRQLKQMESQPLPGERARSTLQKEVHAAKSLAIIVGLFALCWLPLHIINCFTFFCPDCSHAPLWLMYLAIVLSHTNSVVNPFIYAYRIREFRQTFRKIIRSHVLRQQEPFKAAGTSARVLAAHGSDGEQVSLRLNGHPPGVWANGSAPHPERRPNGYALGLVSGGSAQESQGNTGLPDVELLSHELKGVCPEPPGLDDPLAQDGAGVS
Compound,melting point [°C],IC50 [1] [nM],"Ki [1, 2] [nM]",Ki [1] [nM]
"Nc1nc(N/N=C/c2ccc(C(F)(F)F)cc2C(F)(F)F)nc2c1ncn2[C@@H]1O[C@H](CO)[C@@H](O)[C@H]1O [Compound 3, (2R,3R,4S,5R)-2-{6-amino-2-{2-[(E)-2,4-bis(trifluoromethyl)benzylidene]hydrazino}-9H-purin-9-yl}-5-(hydroxymethyl)tetrahydrofuran-3,4-diol]",239,> 10000,–,–
N#Cc1ccccc1/C=N/Nc1nc(N)c2ncn([C@@H]3O[C@H](CO)C(O)C3O)c2n1 (stereo partly shown) [Compound 14],260,–,–,–
"Nc1nc(N/N=C/c2ccc(N3CCCC3)cc2)nc2c1ncn2[C@@H]1O[C@H](CO)[C@@H](O)[C@H]1O [Compound 10, (2R,3R,4S,5R)-2-{6-amino-2-{2-[(E)-4-(pyrrolidin-1-yl)benzylidene]hydrazino}-9H-purin-9-yl}-5-(hydroxymethyl)tetrahydrofuran-3,4-diol]",174,> 10000,–,–
"Nc1nc(N/N=C/c2ccc(C(F)(F)F)cc2)nc2c1ncn2[C@@H]1O[C@H](CO)[C@@H](O)[C@H]1O [Compound 11, (2R,3R,4S,5R)-2-{6-amino-2-{2-[(E)-4-(trifluoromethyl)benzylidene]hydrazino}-9H-purin-9-yl)-5-(hydroxymethyl)tetrahydrofuran-3,4-diol]",260,131,61.3,–
"Nc1nc(N/N=C/c2ccc(-c3ccccn3)cc2)nc2c1ncn2[C@@H]1O[C@H](CO)[C@@H](O)[C@H]1O [Compound 8, (2R,3R,4S,5R)-2-{6-amino-2-{2-[(E)-4-(pyridin-2-yl)benzylidene] hydrazino}-9H-purin-9-yl}-5-(hydroxymethyl)tetrahydrofuran-3,4-diol]",164,445,208,–
"COc1cc(/C=N/Nc2nc(N)c3ncn([C@@H]4O[C@H](CO)[C@@H](O)[C@H]4O)c3n2)cc(OC)c1OC [Compound 18, (2R,3R,4S,5R)-2-{6-amino-2-{2-[(E)-3,4,5-trimethoxybenzylidene]hydrazino}-9H-purin-9-yl}-5-(hydroxymethyl)tetrahydrofuran-3,4-diol]",246,> 10000,–,–
"Nc1nc(N/N=C/c2ccc(N(c3ccccc3)c3ccccc3)cc2)nc2c1ncn2[C@@H]1O[C@H](CO)[C@@H](O)[C@H]1O [Compound 4, (2R,3R,4S,5R)-2-{6-amino-2-{2-[(E)-4-(diphenylamino)benzylidene]hydrazino}-9H-purin-9-yl}-5-(hydroxymethyl)tetrahydrofuran-3,4-diol]",184,142,66.7,–
"Nc1nc(N/N=C/c2ccc(N3CCOCC3)cc2)nc2c1ncn2[C@@H]1O[C@H](CO)[C@@H](O)[C@H]1O [Compound 17, (2R,3R,4S,5R)-2-{6-amino-2-{2-[(E)-4-morpholinobenzylidene]hydrazino}-9H-purin-9-yl}-5-(hydroxymethyl)tetrahydrofuran-3,4-diol]",186,1710,800,–
"Nc1nc(N/N=C/c2ccc(Cl)c(C(F)(F)F)c2)nc2c1ncn2[C@@H]1O[C@H](CO)[C@@H](O)[C@H]1O [Compound 7, (2R,3R,4S,5R)-2-{6-amino-2-{2-[(E)-4-chloro-3-(trifluoromethyl)benzylidene]hydrazino}-9H-purin-9-yl}-5-(hydroxymethyl)tetrahydrofuran-3,4-diol]",242,1710,801,–
"CCOc1cc(/C=N/Nc2nc(N)c3ncn([C@@H]4O[C@H](CO)[C@@H](O)[C@H]4O)c3n2)ccc1O [Compound 16, (2R,3R,4S,5R)-2-{6-amino-2-{2-[(E)-3-ethoxy-4-hydroxybenzylidene]hydrazino}-9H-purin-9-yl}-5-(hydroxymethyl)tetrahydrofuran-3,4-diol]",198,3460,1620,–
"Nc1nc(N/N=C/c2ccc(-n3ccnc3)cc2)nc2c1ncn2[C@@H]1O[C@H](CO)[C@@H](O)[C@H]1O [Compound 12, (2R,3R,4S,5R)-2-{2-{2-[(E)-4-(1H-imidazol-1-yl)benzylidene]hydrazino}-6-amino-9H-purin-9-yl}-5-(hydroxymethyl)tetrahydrofuran-3,4-diol]",276,462,216,–
"COc1cc(/C=N/Nc2nc(N)c3ncn([C@@H]4O[C@H](CO)[C@@H](O)[C@H]4O)c3n2)ccc1OCc1ccccc1 [Compound 19, (2R,3R,4S,5R)-2-{6-amino-2-{2-[(E)-4-(benzyloxy)-3-methoxybenzylidene]hydrazino}-9H-purin-9-yl}-5-(hydroxymethyl)tetrahydrofuran-3,4-diol]",146,216,101,–
"Nc1nc(N/N=C/c2cccc(OCc3ccccc3)c2)nc2c1ncn2[C@@H]1O[C@H](CO)[C@@H](O)[C@H]1O [Compound 6, (2R,3R,4S,5R)-2-{6-amino-2-{2-[(E)-3-(benzyloxy)benzylidene] hydrazino}-9H-purin-9-yl}-5-(hydroxymethyl)tetrahydrofuran-3,4-diol]",148,369,173,–
"CC(=O)Nc1ccc(/C=N/Nc2nc(N)c3ncn([C@@H]4O[C@H](CO)[C@@H](O)[C@H]4O)c3n2)cc1 [Compound 1, N-{4-{(E)-{2-{6-amino-9-[(2R,3R,4S,5R)-3,4-dihydroxy-5-(hydroxymethyl)tetrahydrofuran-2-yl]-9H-purin-2-yl}hydrazono}methyl}phenyl}acetamide]",126,2840,1330,–
"CCCOc1ccc(/C=N/Nc2nc(N)c3ncn([C@@H]4O[C@H](CO)C(O)C4O)c3n2)cc1 (stereo partly drawn) [Compound 13, (2R,3R,45,5R)-2-{6-amino-2-{2-[(E)-4-propoxybenzylidene]hydrazino}-9H-purine-9-yl}-5-(hydroxymethyl)tetrahydrofuran-3,4-diol]",218,479,–,224
